According to ChEMBL document CHEMBL1136382, “Spiro[pyrrolidine-2,2'-adamantanes]: synthesis, anti-influenza virus activity and conformational properties” (Bioorg Med Chem Lett, 2003):

Legend:
MDCK [1] = assay: Minimum cytotoxic concentration required to cause a microscopically detectable alteration of MDCK, Madin-Darby canine kidney cell morphology.; format: functional, Canis lupus familiaris
MDCK [2] = assay: cells; details: Canis lupus familiaris
Epithelial cell = assay: Antiviral activity against influenza B (Hong kong/5/72) in human epithelial cells; format: functional, cell-based

## CC1CCC2(N1)C1CC3CC(C1)CC2C3 (stereo not given)
MDCK [1]
  MCC50: >414 µM
MDCK [2]
  EC50: 2.5 µM
Epithelial cell
  EC50: > 1040 µM

## NC(=O)c1ncn([C@@H]2O[C@H](CO)[C@@H](O)[C@H]2O)n1 [RIBAVIRIN]
MDCK [1]
  MCC50: >276.9 µM
MDCK [2]
  EC50: 3.7 µM
Epithelial cell
  EC50: > 1020 µM

## CC1CCN(C)C12C1CC3CC(C1)CC2C3 (stereo not given)
MDCK [1]
  MCC50: >60 µM
MDCK [2]
  EC50: 12.5 µM
Epithelial cell
  EC50: > 746 µM

## C1CNC2(C1)C1CC3CC(C1)CC2C3 (stereo not given)
MDCK [1]
  MCC50: >610.5 µM
MDCK [2]
  EC50: 1.8 µM
Epithelial cell
  EC50: > 1100 µM

## CC1CN(C)C2(C1)C1CC3CC(C1)CC2C3 (stereo not given)
MDCK [1]
  MCC50: >226 µM
MDCK [2]
  EC50: 3.3 µM
Epithelial cell
  EC50: > 746 µM

## CC1CNC2(C1)C1CC3CC(C1)CC2C3 (stereo not given)
MDCK [1]
  MCC50: 313.6 µM
MDCK [2]
  EC50: 3.3 µM
Epithelial cell
  EC50: 1040 µM

## NC12CC3CC(CC(C3)C1)C2 [AMANTADINE]
MDCK [1]
  MCC50: >1211.8 µM
MDCK [2]
  EC50: 1.1 µM
Epithelial cell
  EC50: > 1330 µM

## CC1CCC2(C3CC4CC(C3)CC2C4)N1C (stereo not given)
MDCK [1]
  MCC50: 55.3 µM
MDCK [2]
  EC50: 2.7 µM
Epithelial cell
  EC50: 149 µM

## CC1CCNC12C1CC3CC(C1)CC2C3 (stereo not given)
MDCK [1]
  MCC50: >280 µM
MDCK [2]
  EC50: 3.7 µM
Epithelial cell
  EC50: > 1040 µM

## CN1CCCC12C1CC3CC(C1)CC2C3 (stereo not given)
MDCK [1]
  MCC50: 357 µM
MDCK [2]
  EC50: 2.9 µM
Epithelial cell
  EC50: > 1040 µM
